Source: patent publication US20050038035A1, “Heterocyclic amide compounds as apolipoprotein b inhibitors” (priority 2001, published 2005)

Experiments:
Apo B secretion = test: Test 1: Measurement of Inhibition of Apo B Secretion (HepG2 cells, ELISA of medium); type: cell-based; conditions: Homo sapiens, 10^−8 M test compound, 15-hour incubation, 0.1% DMSO treated cells as controls
Description: HepG2 cells were seeded in Eagles medium containing 10% fetal calf serum (FCS) at a density of 30000 cells/well in 96-well plates and allowed to grow for 3 days before treatment. At this time, the medium was replaced with fresh medium containing 0.1% dimethyl sulfoxide (DMSO) and the indicated concentrations of a test compound. After 15-hour incubation, the amount of Apo B and Apo AI accumulated in the media was determined by ELISA.
The assay was carried out at ambient temperature. A flat bottomed micro ELISA plate (manufactured by Nunc) was coated with an anti Apo B monoclonal antibody solution ([…] in 0.05% carbonate buffer, pH 9.6).by adding the antibody solution at a volume of 100 μl per well. After 1-hour incubation on a plate mixer, the unbound materials were removed by washing the well 3 times with a washing buffer (phosphate buffered saline, pH 7.2 containing 0.1% bovine serum albumin and 0.05% Tween-20). Then 20 μl of […] and 100 μl of a solution of peroxidase coupled anti Apo B antibody were added. After 1-hour incubation on a plate mixer, washing was performed 3 times to remove the unbound materials. A freshly prepared substrate solution (2.5 mg/ml ortho-phenylene diamine and 0.018% H2O2 in 0.11 M Na2HPO4-0.044 M sodium citrate buffer, pH 5.4) at a volume of 200 μl was then added to each well. After 20-minute incubation, the enzyme reaction was terminated by adding 50 μl of 0.5 M sulfuric acid. Absorbance of each well was determined at 490 nm using a microplate reader. Apo B concentration was calculated from a standard curve generated from purified Apo B standard that was run in parallel in the same plate. Inhibition of Apo B secretion by the test compound is calculated taking 0.1% DMSO treated cells as controls.
Measurement of Apo AI was performed similar to that of Apo B, except for diluting the sample 11-fold with a dilution buffer (phosphate buffered saline, pH 7.2 containing 0.5% bovine serum albumin and 0.05% Tween-20).
Apo B secretion inhibitors are identified as compounds that decrease Apo B secretion without affecting the secretion of Apo AI.

ddY-mice [1] = test: Test 2: Lipids Lowering Effect on ddY-Mice (plasma cholesterol and triglyceride); type: in vivo; conditions: male ddY-mice, oral, 3.2 mg/kg in 0.5% methylcellulose, relative to baseline; for Cholesterol (% of 0 hr) 2 hr: plasma total-cholesterol 2 hours after administration; for Triglyceride (% of 0 hr) 2 hr: plasma triglyceride 2 hours after administration
Description: Male ddY-mice were housed in temperature- and humidity-controlled rooms and fed with laboratory chow. The animals were randomized according to their body weight and deprived of food just before the experiment. A blood sample (baseline blood sample) was collected from the retro orbital venous plexus before administration of the test drug, and then the animals were orally dosed with the test drug in a vehicle (aqueous solution of 0.5% methylcellulose). Blood samples were drawn at 2 hours after drug administration for the measurement of cholesterol and triglyceride.
Plasma total-cholesterol and plasma triglyceride were determined by conventional enzyme methods using commercially available kits. The cholesterol CII-Test Wako (Wako Pure Chemical Industries, Ltd.) was used for the measurement of cholesterol, and the triglyceride E-test Wako (Wako Pure Chemical Industries, Ltd.) was used for the measurement of triglyceride.
Lipids lowering effects were shown in percent relative to the baseline level (level at 0 hr).

ddY-mice [2] = test: Test 3: Lipid Lowering Effect on ddY-Mice (olive oil load, plasma TG elevation); type: in vivo; conditions: male ddY-mice fasted about 16 hours, oral, 0.32 mg/kg in olive oil (10 ml/kg), 2 hours; (TG increase in drug treated group/TG increase in control group)×100
Description: Male ddY-mice were housed in temperature- and humidity-controlled rooms and fed with laboratory chow. The animals were randomized according to their body weight and food was deprived about 16 hours before experiment. Baseline blood sample was collected from the retro orbital venous plexus then the animals were orally dosed with drugs in olive oil (10 ml/kg). For control group, 10 ml/kg of olive oil was loaded orally. Blood samples were drawn at 2 hours after drug administration for the measurement of triglyceride (TG) elevation. Plasma TG was determined by conventional enzyme method (The triglyceride E-test Wako).
Lipid lowering effects were shown in percent of the TG increase in drug treated group, relative to the TG increase in control group. Lipid lowering effect (%)=(TG increase in drug treated group/TG increase in control group)×100

Cc1ccc(-c2ccc(Cl)cc2)c(C(=O)Nc2ccc(NCCc3ccccn3)cc2)c1 [Example 31, 4′-chloro-4-methyl-N-(4-{[2-(2-pyridinyl)ethyl]amino}phenyl)-1,1′-biphenyl-2-carboxamide]
inhibition at 0.01 µM (Apo B secretion): 96% | Cholesterol (% of 0 hr) 2 hr (ddY-mice [1]): 86 % of 0 hr | Triglyceride (% of 0 hr) 2 hr (ddY-mice [1]): 36 % of 0 hr

Cc1ccc(C(=O)Nc2ccc(NCCc3ccccn3)cc2)c(-c2ccc(C(F)(F)F)cc2)c1 [Example 44, 5-methyl-N-(4-{[2-(2-pyridinyl)ethyl]amino}phenyl)-4′-(trifluoromethyl)-1,1′-biphenyl-2-carboxamide]
inhibition at 0.01 µM (Apo B secretion): 83% | Cholesterol (% of 0 hr) 2 hr (ddY-mice [1]): 80 % of 0 hr | Triglyceride (% of 0 hr) 2 hr (ddY-mice [1]): 25 % of 0 hr

Cc1ccc(C(=O)Nc2ccc(NCCc3ccccn3)cc2)c(-c2ccc(F)cc2)c1 [Example 46, 4′-fluoro-5-methyl-N-(4-{[2-(2-pyridinyl)ethyl]amino}phenyl)-1,1′-biphenyl-2-carboxamide]
inhibition at 0.01 µM (Apo B secretion): 94% | Cholesterol (% of 0 hr) 2 hr (ddY-mice [1]): 79 % of 0 hr | Triglyceride (% of 0 hr) 2 hr (ddY-mice [1]): 19 % of 0 hr

Cc1ccc(-c2ccc(C)cc2C(=O)Nc2ccc(NCCc3cccc(N)n3)cc2)cc1 [Example 53, N-(4-{[2-(6-amino-2-pyridinyl)ethyl]amino}phenyl)-4,4′-dimethyl-1,1′-biphenyl-2-carboxamide]
inhibition at 0.01 µM (Apo B secretion): 84% | Cholesterol (% of 0 hr) 2 hr (ddY-mice [1]): 71 % of 0 hr | Triglyceride (% of 0 hr) 2 hr (ddY-mice [1]): 17 % of 0 hr

Cc1ccc(-c2ccc(Cl)cc2)c(C(=O)Nc2ccc(NCCc3cccc(N)n3)cc2)c1 [Example 55, N-(4-{[2-(6-amino-2-pyridinyl)ethyl]amino}phenyl)-4′-chloro-4-methyl-1,1′-biphenyl-2-carboxamide]
inhibition at 0.01 µM (Apo B secretion): 86% | Cholesterol (% of 0 hr) 2 hr (ddY-mice [1]): 75 % of 0 hr | Triglyceride (% of 0 hr) 2 hr (ddY-mice [1]): 16 % of 0 hr

Cc1ccc(-c2ccc(F)cc2)c(C(=O)Nc2ccc(NCCc3cccc(N)n3)cc2)c1 [Example 56, N-(4-{[2-(6-amino-2-pyridinyl)ethyl]amino}phenyl)-4′-fluoro-4-methyl-1,1′-biphenyl-2-carboxamide]
inhibition at 0.01 µM (Apo B secretion): 93% | Cholesterol (% of 0 hr) 2 hr (ddY-mice [1]): 81 % of 0 hr | Triglyceride (% of 0 hr) 2 hr (ddY-mice [1]): 31 % of 0 hr

N#Cc1cccc(CN2CCN(c3ccc(NC(=O)C4=C(c5ccc(C(F)(F)F)cc5)CCCC4)cn3)CC2)c1 [Example 212, N-{6-[4-(3-cyanobenzyl)-1-piperazinyl]-3-pyridinyl}-2-[4-(trifluoromethyl)phenyl]-1-cyclohexene-1-carboxamide]
inhibition at 0.01 µM (Apo B secretion): 84% | Lipid lowering effect (%) (ddY-mice [2]): 55%

O=C(Nc1ccc(NCCc2ccccn2)cc1)C1=C(c2ccc(C(F)(F)F)cc2)CCCCC1 [Example 232, N-(4-{[2-(2-pyridinyl)ethyl]amino}phenyl)-2-[4-(trifluoromethyl)phenyl]-1-cycloheptene-1-carboxamide]
inhibition at 0.01 µM (Apo B secretion): 93% | Lipid lowering effect (%) (ddY-mice [2]): 29%
